Read-outs that look alike come from different tables or passages of the source.
Assays:
M. globosa CYP5218 [1] = molecular target: T1, M. globosa CYP5218 (Malassezia globosa, UniProt A8QCD3, A3L/A5L/F6A/I7V/S4L/S8F); experiment: biochemical; assay type: binding; conditions: for binding spectra with CYP5218: result in words; for CYP5218 Kd (μM) Eadie-Hofstee / CYP5218 Kd (μM) Michaelis-Menten / Kd: 4 μM CYP5218, type I spectra, mean of three replicates with SD
Protocol: Reduced carbon monoxide difference spectroscopy[46][47] and absolute spectra between 700 and 300 nm were used to determine cytochrome P450 concentrations. Substrate and azole binding studies were performed[31][48] using 2.5 mM stock sterol solutions in 40% (wt/vol) (2-hydroxypropyl)-β-cyclodextrin (HPCD), 4 mg ml^−1 solutions of fatty acids in dimethylformamide (DMF), and stock 0.05, 0.1 and 0.2 mg ml^−1 solutions of azole antifungal agents in dimethylsulfoxide (DMSO). Sterols were titrated against 5 μM CYP51, fatty acids were titrated against 4 μM CYP5218 and azole antifungal agents were titrated against 2 μM CYP51 and CYP5218. The absorbance difference spectrum between 500 and 350 nm was determined after each incremental addition of ligand with saturation curves constructed from ΔApeak-trough against ligand concentration. […] The dissociation constants of the enzyme-azole complex were determined by non-linear regression (Levenberg-Marquardt algorithm) using a rearrangement of the Morrison equation for tight ligand binding. ProFit 6.1.12 (QuantumSoft, Zurich, Switzerland) was used for curve-fitting data. All ligand-binding studies were performed at 22 ± 2 °C and in triplicate. All spectral determinations were made using a Hitachi U-3310 UV/VIS spectrophotometer (San Jose, California).

M. globosa CYP5218 [2] = molecular target: T1, M. globosa CYP5218; conditions: 100 μM fatty acid, 1 hour to overnight (~16 h), three different cytochrome P450 reductase redox partners
Protocol: The CYP5218 fatty acid reconstitution assay system used was based on that previously described by Guengerich[54] and contained 200 nM of CYP5218, 500 nM of cytochrome P450 reductase (A. fumigatus CPR1[52]) or H. sapiens CPR[55] or C. albicans CPR[56], 50 μM DLPC, 100 μM fatty acid (lauric acid, myristic acid, palmitic acid, palmitoleic acid, oleic acid and linoleic acid), 4 mM glucose-6-phosphate, 3 U/ml yeast glucose-6-phosphate dehydrogenase in a final volume of 500 μl with 0.1 M potassium phosphate (pH 7.4). Assay mixtures were incubated at 37 °C for 5 min prior to initiation with 4 mM β-NADPHNa4 and then incubated for a further 60 min or overnight (~16 h) at 37 °C. Fatty acid metabolites were recovered by extraction with dichloromethane and dried in a vacuum centrifuge. Samples were derivatized with 200 μl anhydrous pyridine and 250 μl BSTFA:TMCS (99:1) (30 min at 80 °C) and extracted with 500 μl of hexane, prior to analysis by GC/MS (Thermo GC Trace 1300 and ISQ MS). GC analysis was performed with a 5% phenyl methylpolysiloxane column (DB5) (Agilent Technologies). The oven programme was as follows: initial: 70 °C, with 3 min hold; ramp: 10 °C min^−1 to 180 °C (held for 2 min), 10 °C min^−1 to 250 °C (held for 2 min) and 10 °C min^−1 to 280 °C (held for 2 min). Data were analyzed using Thermo Xcalibur 2.2 software.

Candida maltosa CYP52A4 = test system: Candida maltosa CYP52A4; set-up: method as in PMID 8645001; conditions: cited from earlier work
[3] = CYP5218 Kd (μM) Michaelis-Menten

Row | SMILES | Kd (M. globosa CYP5218 [1]; CYP5218 Kd (μM) Eadie-Hofstee) | Kd (M. globosa CYP5218 [1]; [3]) | product formation in CYP5218 reconstitution assay (M. globosa CYP5218 [2]) | also measured
1 | C=CCCCCCCCCCCCCCC [1-hexadecene] | – | – | – | binding spectra with CYP5218 (M. globosa CYP5218 [1]): No binding spectra
2 | CCCCCCCCCCCCCCCCCCCC(=O)O [Arachidic acid, arachidic acid] | – | – | – | CYP5218 Kd (μM) Eadie-Hofstee (M. globosa CYP5218 [1]): no binding; CYP5218 Kd (μM) Michaelis-Menten (M. globosa CYP5218 [1]): no binding; binding spectra with CYP5218 (M. globosa CYP5218 [1]): No binding spectra
3 | CCCCC/C=C\C/C=C\C/C=C\C/C=C\CCCC(=O)O [Arachidonic acid, arachidonic acid] | 256 ± 36 µM | 264 ± 34 µM | – | –
4 | CCCCCCCCCC(=O)O [Capric acid, capric acid] | – | – | – | CYP5218 Kd (μM) Eadie-Hofstee (M. globosa CYP5218 [1]): no binding; CYP5218 Kd (μM) Michaelis-Menten (M. globosa CYP5218 [1]): no binding; binding spectra with CYP5218 (M. globosa CYP5218 [1]): No binding spectra
5 | CCCCCCCCCCCC(=O)O [Lauric acid, lauric acid] | 136 ± 3 µM | 136 ± 4 µM | no observed product formation | Kd (Candida maltosa CYP52A4): ~110 µM
6 | CC/C=C\CCCCCCCC(=O)O [Lauroleic acid, lauroleic acid] | – | – | – | CYP5218 Kd (μM) Michaelis-Menten (M. globosa CYP5218 [1]): poor fit; Kd (M. globosa CYP5218 [1]; read-out: CYP5218 Kd (μM) Eadie-Hofstee): 148 ± 20 µM
7 | CCCCCCCCCCCCCC(=O)O [Myristic acid, myristic acid] | 245 ± 29 µM | 195 ± 41 µM | no observed product formation | Kd (Candida maltosa CYP52A4): ~120 µM
8 | CCCC/C=C\CCCCCCCC(=O)O [Myristoleic acid, myristoleic acid] | 151 ± 8 µM | 158 ± 20 µM | – | –
9 | CCCCCCCC/C=C\CCCCCCCC(=O)O [Oleic acid, oleic acid] | 90 ± 16 µM | 93 ± 11 µM | no observed product formation | –
10 | CCCCCCCCCCCCCCCC(=O)O [Palmitic acid, palmitic acid] | 253 ± 77 µM | 1020 ± 755 µM | no observed product formation | –
11 | CCCCCC/C=C\CCCCCCCC(=O)O [Palmitoleic acid, palmitoleic acid] | 114 ± 5 µM | 113 ± 7 µM | no observed product formation | –

From publication PMC4904373, “Azole Antifungal Sensitivity of Sterol 14α-Demethylase (CYP51) and CYP5218 from Malassezia globosa” (Scientific Reports, 2016)
